From patent US10842804B2 (MEDIGEN BIOTECHNOLOGY CORP., priority 2017, dated 2020) come the findings set out here.

The nature of this data set: Phase III trial: safety profiles, treatment completion and compliance. The following applies: in vivo.

Protocol: After signing the consent form, the eligibility of each patient was verified according to the enrollment criteria by checking his/her medical records and current disease conditions. Eligible patients were stratified by tumor size (<5 cm vs. ≥5 cm) and vascular invasion (no vs. yes) and then randomized at a ratio of 1:1 within strata to receive PI-88 (160 mg/day) or a placebo by using a centralized interactive web response system (Cenduit Interactive Response Technology; Cenduit, Durham, N.C., USA).
PI-88 or placebo was administered in a single subcutaneous injection each day for four consecutive days per week for 3 weeks out of every 4 weeks (a cycle with 4-weeks). The days of injection were the same in every administration week. After an initial training period of 1-8 days, participants self-administered the study drug at home. Participants received treatment for up to 52 weeks and were followed until 96 weeks.
If the antiheparin antibody test was positive, the participant was asked to permanently discontinue the treatment.
The distributional properties of continuous variables are expressed as mean t standard deviation, categorical variables are presented as frequency and percentage (%), and the survival curves of the DFS period were estimated using the Kaplan-Meier method. Baseline demographic and clinical characteristics were compared between the PI-88 and placebo groups. […]

Consider muparfostat [PI-88], for which the “fatal AEs during the study treatment period” value is listed as “No patients”.
